Test results reported in PubChem BioAssay (NCI).
Values joined by “and” are separate entries in the source; they are usually repeats but may differ in a detail not shown here. Equal entries are not always repeated.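 Protocol summary: plate cells (96-well), add compound at 5 concentrations, incubate 48 h, interpolate endpoints linearly. Here, GI50 denotes the concentration required for 50% inhibition of growth. TGI denotes the concentration required for complete inhibition of growth.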

Assays:
Assay in all cases: DTP human tumour cell line panel, 48 h
HCT-116 colon = tested on: HCT-116 colon
NCI-H522 lung = tested on: NCI-H522 lung
NCI-H226 lung = tested on: NCI-H226 lung
KM12 colon = tested on: KM12 colon
UACC-257 melanoma = tested on: UACC-257 melanoma
786-0 renal = tested on: 786-0 renal
BT-549 breast = tested on: BT-549 breast
A498 renal = tested on: A498 renal
MDA-MB-435 = tested on: MDA-MB-435
K-562 leukemia = tested on: K-562 leukemia

Row | Compound | GI50 (HCT-116 colon) | TGI (HCT-116 colon) | GI50 (NCI-H522 lung) | TGI (NCI-H522 lung) | GI50 (NCI-H226 lung) | TGI (NCI-H226 lung) | GI50 (KM12 colon) | TGI (KM12 colon) | GI50 (UACC-257 melanoma) | TGI (UACC-257 melanoma) | GI50 (786-0 renal) | TGI (786-0 renal) | GI50 (BT-549 breast) | TGI (BT-549 breast) | GI50 (A498 renal) | TGI (A498 renal) | GI50 (MDA-MB-435) | TGI (MDA-MB-435) | TGI (K-562 leukemia) | GI50 (K-562 leukemia)
1 | Cc1ccccc1NC(=O)NC(CC(N)=O)c1ccc2c(c1)nc(-c1cccc(Oc3ccc(C(C)(C)C)cc3)c1)n2CCCN1CCCCC1C (stereo not drawn) | 1.71 µM | 3.16 µM | 1.88 µM | 3.57 µM | 7.9 µM | 25.7 µM | 2.34 µM | 5.63 µM | 1.86 µM | 3.49 µM | 4.19 µM | 8.66 µM | 13.3 µM | 26.1 µM | 5.91 µM | 13.4 µM | 1.72 µM | 3.3 µM | – | –
2 | COC(=O)/C(C#N)=C1\N=NNN1CCCc1ccccc1 | – | > 100 µM | – | 52.7 µM | – | > 100 µM | – | > 100 µM | – | > 100 µM | – | > 100 µM | – | – | – | > 100 µM | – | – | > 100 µM | –
3 | COc1ccccc1NC(=O)C1=C(C)NC(C)=C(C(=O)Nc2ccccc2OC)C1c1ccc(C(C)C)cc1 | – | > 100 µM | – | – | – | > 100 µM | – | > 100 µM | – | > 100 µM | – | > 100 µM | – | – | – | > 100 µM | – | – | > 1 µM | –
4 | CC1=C(C(=O)Nc2ccc(F)c(Cl)c2)C(c2cccc(Cl)c2)NC(=O)N1 (stereo not drawn) | 14.7 µM | 27.9 µM | 15.9 µM | 33 µM | 18.1 µM | 48.2 µM | 20.6 µM | 38.7 µM | 21.4 µM | 56.2 µM | 17.4 µM | 35.3 µM | 19 µM | 42 µM | 1.39 µM | 15.5 µM | 17.9 µM | 38 µM | – | –
5 | N#Cc1c2ccccc2c2nnc3cc(Cl)c(Cl)cc3n12 | 34.2 µM | > 100 µM | 39.2 µM | > 100 µM | – | – | > 100 µM | > 100 µM | 34.5 µM | > 100 µM | > 100 µM | > 100 µM | 60.9 µM | > 100 µM | 56.6 µM | > 100 µM | > 100 µM | > 100 µM | 89.1 µM | 29 µM
6 | CCN(CCCl)CCNc1c2ccccc2nc2ccc(OC)cc12 | – | 2.1 µM | – | 1.71 µM | – | 2.42 µM | – | 3.11 µM | – | 3.73 µM | – | 1.84 µM | – | – | – | 6.64 µM | – | – | 2.51 µM | –
7 | CC(CN(CP(=O)([O-])[O-])CP(=O)([O-])[O-])N(CP(=O)([O-])[O-])CP(=O)([O-])[O-].N[C@@H]1CCCC[C@@H]1N.[Pt+2] (stereo not drawn) | > 100 µM | > 100 µM | > 100 µM | > 100 µM | > 100 µM | > 100 µM | > 100 µM | > 100 µM | > 100 µM | > 100 µM | > 100 µM | > 100 µM | – | – | > 100 µM | > 100 µM | – | – | > 100 µM | > 100 µM
8 | C/C=C/C1(NS(=O)(=O)c2ccc(C)cc2)CCC(C(C)(C)C)CC1 (stereo not drawn) | – | 36 µM | – | 26 µM | – | 44.4 µM | – | 39 µM | – | 56 µM | – | 43.8 µM | – | – | – | 49.3 µM | – | – | 99.5 µM | –
9 | CCCNc1nc(-c2ccc(OC)cc2)nc2ccccc12 | 6.85 µM | 27.7 µM | 22.3 µM | > 100 µM | 16.1 µM | 41.9 µM | 14.6 µM | 30.8 µM | – | – | 13.7 µM | 33 µM | – | – | 11.9 µM | 25 µM | 14.5 µM | 29.2 µM | > 100 µM | > 100 µM
10 | CCCCOC(=O)N[C@H]1CCc2cc(OC)c(OC)c(OC)c2-c2ccc(SC)c(=O)cc21 | – | 1.18 µM | – | < 0.01 µM | – | 0.357 µM | – | < 0.0464 µM | – | 31.4 µM | – | 25.5 µM | – | – | – | 27.6 µM | – | < 0.01 µM | 65.1 µM | –
11 | N#CC(C#N)=C1NC(=O)C(c2ccccc2)C(=O)N1 (stereo not drawn) | – | > 100 µM | – | > 100 µM | – | > 100 µM | – | > 100 µM | – | > 100 µM | – | > 100 µM | – | – | – | > 100 µM | – | – | > 100 µM | –
12 | Cc1ccccc1NC(=O)c1[nH]c(=S)nc(N)c1-c1ccccc1C | – | > 100 µM | – | > 100 µM | – | > 100 µM | – | > 100 µM | – | > 100 µM | – | > 100 µM | – | – | – | > 100 µM | – | – | > 100 µM | –
13 | COC(=O)C1Cc2c([nH]c3ccccc23)C=N1 (stereo not drawn) | – | > 100 µM | – | > 100 µM | – | > 100 µM | – | > 100 µM | – | > 100 µM | – | > 100 µM | – | – | – | > 100 µM | – | – | > 100 µM | –
14 | Cc1cccc(C)c1NC(=O)C(=O)C1C(=O)N(c2ccccc2)N=C1N (stereo not drawn) | – | > 100 µM | – | > 100 µM | – | > 100 µM | – | > 100 µM | – | > 100 µM | – | > 100 µM | – | – | – | > 100 µM | – | – | > 100 µM | –
15 | COc1nc2c(nc(N)n2C2OC(CO)C(O)C(O)C2O)c(=O)n1C (stereo not drawn) | – | > 100 µM | – | > 100 µM | – | > 100 µM | – | > 100 µM | – | > 100 µM | – | > 100 µM | – | – | – | > 100 µM | – | – | > 100 µM | –
16 | CC(C)(C)c1ccccc1NS(=O)(=O)c1ccccc1 | – | > 100 µM | – | – | – | 88.2 µM | – | > 100 µM | – | > 100 µM | – | > 100 µM | – | – | – | > 100 µM | – | – | > 100 µM | –
17 | COc1cc(/C=C/C(=O)c2ccc(Nc3nc(Nc4ccc(F)cc4)nc(Nc4ccc(F)cc4)n3)cc2)cc(OC)c1OC | 2.56 µM | > 100 µM | 3.1 µM | > 100 µM | 3.8 µM | 29.3 µM | 8.79 µM | > 100 µM | 7.11 µM | 61.1 µM | 2.66 µM | 12 µM | – | – | 15.7 µM | 49 µM | 17.1 µM | > 100 µM | > 100 µM | 3 µM
18 | Cn1c(=O)c(F)c(Nc2ccc(I)cc2F)c2c(=O)n(C[C@@H](O)CO)cnc21 | < 0.01 µM and 0.00832 µM | 11.5 µM | – | > 100 µM | – | – | 0.0237 µM and 0.0319 µM | 39.1 µM and > 4.11 µM | < 0.01 µM and 0.00301 µM | < 0.01 µM and 0.0262 µM | 4.59 µM and 1.3 µM | 21.4 µM and > 4.58 µM | 12.6 µM | > 95.8 µM | < 0.01 µM and 0.0103 µM | 0.0305 µM and 0.0752 µM | < 0.01 µM and 0.00642 µM | 41.1 µM | > 84 µM | 0.172 µM and 0.112 µM
